Source: patent publication US20260265321A1, “PEPTIDE AND POLYPEPTIDE INHIBITING THE NF-KB SIGNALING PATHWAY” (Centre National de la Recherche Scientifique, priority 2023, published 2026)
Residues, ends and D or L forms follow the SMILES beside them.

Legend:
6×His-IKKβ(1-669) EE = target: T1, 6×His-IKKβ(1-669) EE (Homo sapiens, UniProt O14920, S177E/S181E); experiment: MBP-pulldown of recombinant IKKβ by MBP-peptide fusions; assay type: binding; conditions: 0.3 μM IKKβ, Western blot
T1 construct: a nearly full-length (residues 1-669) and constitutively active (S177E/S181E) mutant construct of human IKKβ; made in house; host or cells: Sf21 insect cells (baculovirus)
T1 sequence (O14920 1-669 S177E/S181E): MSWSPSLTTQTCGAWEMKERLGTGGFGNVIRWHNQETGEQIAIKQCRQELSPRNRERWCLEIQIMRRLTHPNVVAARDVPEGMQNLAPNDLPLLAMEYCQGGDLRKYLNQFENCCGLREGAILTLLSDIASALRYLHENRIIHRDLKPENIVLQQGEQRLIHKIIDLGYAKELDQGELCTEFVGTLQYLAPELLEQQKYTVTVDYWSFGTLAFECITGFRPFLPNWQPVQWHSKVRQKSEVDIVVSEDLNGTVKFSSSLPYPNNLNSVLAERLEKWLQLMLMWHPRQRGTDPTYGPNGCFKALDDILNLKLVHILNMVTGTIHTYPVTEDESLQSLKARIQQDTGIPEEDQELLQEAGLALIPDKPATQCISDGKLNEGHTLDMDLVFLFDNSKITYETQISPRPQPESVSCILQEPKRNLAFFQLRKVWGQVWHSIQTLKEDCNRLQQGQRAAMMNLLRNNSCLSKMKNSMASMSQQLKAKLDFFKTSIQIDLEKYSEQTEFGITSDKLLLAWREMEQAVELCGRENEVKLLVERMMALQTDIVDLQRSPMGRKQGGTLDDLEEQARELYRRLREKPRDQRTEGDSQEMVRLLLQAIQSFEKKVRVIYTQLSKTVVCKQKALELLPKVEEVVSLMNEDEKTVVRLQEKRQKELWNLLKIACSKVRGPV
Protocol: Experiments were performed in PD buffer (20 mM Tris pH 8.0, 150 mM NaCl, 2 mM DTT). For each experiment, 10 μl of amylose resin (dry bead volume) coupled to MBP-fusion constructs were incubated with […] of purified 6×His-IKKα(10-667) EE and 6×His-IKKβ (1-669) EE constructs adjusted at a concentration of 0.3 μM for 2 hours at 4° C. After two quick washing steps with PD buffer, complexes were eluted by incubation with 20 μl of the same buffer supplemented with 20 mM maltose for 15 minutes at 4° C. After mild centrifugation, supernatants were recovered and migrated onto two separate 10% SDS-PAGE gels. One gel was used for Western blot analysis to detect His-IKKα or His-IKKβ using and anti-6×His antibody (Sigma, #SAB4301134), the other for Coomassie staining to detect MBP-fusion proteins. Quantification of band intensity was done using the Image J software.

IKKα/β heterodimer = target: T2, IKKα/β heterodimer (Homo sapiens, UniProt O14920+O15111, S176E/S177E/S180E/S181E); experiment: MBP-pulldown of reconstituted IKKα/β heterodimer; assay type: binding
T2 construct: co-expression of 6×His-IKKβ(1-669) EE and Strep-IKKα(10-667) EE constructs in insect cells; Strep (followed by TEV site) (N); 6×His (followed by TEV site) (N); made in house; host or cells: Sf21 insect cells (co-infection with two baculoviruses)
T2 sequence (O15111 10-667 S176E/S180E): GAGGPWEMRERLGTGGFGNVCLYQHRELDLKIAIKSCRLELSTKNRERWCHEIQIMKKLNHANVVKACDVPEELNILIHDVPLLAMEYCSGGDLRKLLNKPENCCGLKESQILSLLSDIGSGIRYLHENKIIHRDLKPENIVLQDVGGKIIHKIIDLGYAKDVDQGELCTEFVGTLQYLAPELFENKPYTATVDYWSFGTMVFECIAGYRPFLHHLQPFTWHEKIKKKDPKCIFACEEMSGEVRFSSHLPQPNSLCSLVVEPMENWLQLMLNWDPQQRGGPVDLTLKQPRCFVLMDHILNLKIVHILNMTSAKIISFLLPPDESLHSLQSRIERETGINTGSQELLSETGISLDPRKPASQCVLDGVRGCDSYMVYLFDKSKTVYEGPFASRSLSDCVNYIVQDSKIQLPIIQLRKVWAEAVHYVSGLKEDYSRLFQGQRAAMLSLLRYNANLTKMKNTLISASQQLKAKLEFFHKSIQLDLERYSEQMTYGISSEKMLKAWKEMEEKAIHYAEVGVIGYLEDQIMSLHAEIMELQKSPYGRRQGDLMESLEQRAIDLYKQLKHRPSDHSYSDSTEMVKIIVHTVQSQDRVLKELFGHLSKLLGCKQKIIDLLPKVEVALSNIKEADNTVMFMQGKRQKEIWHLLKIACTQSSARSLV
T2 sequence (O14920 1-669 S177E/S181E): T1 sequence (O14920 1-669 S177E/S181E)
Protocol: IKKα/β heterodimer. SF21 cells expressing the Strep-IKKα(10-667) EE and 6×His-IKKβ(1-669) EE proteins were resuspended in lysis buffer (100 mM Tris-HCl pH 8.0, 150 mM NaCl, 10% glycerol, 2 mM DTT, 2 μg/ml DNaseI, 0.2 μg/ml RNAse, Roche Complete protease inhibitor cocktail) and lysed by mild sonication. Lysates were centrifuged at 14500 g for 45 minutes at 4° C. The supernatants were applied by gravity flow to Strep-Tactin XT 4F resin (IBA-lifesciences) pre-equilibrated in wash buffer (100 mM Tris-HCl pH 8, 150 mM NaCl, 10% glycerol, 1 mM EDTA, and 2 mM DTT). The resin was extensively washed with wash buffer and the proteins eluted with elution buffer (100 mM Tris-HCl pH 8, 150 mM NaCl, 10% glycerol, 2 mM DTT, and 50 mM biotin). The eluate was then applied to Ni^2+-NTA resin, which was washed and eluted as described above for the IKK homodimers. IKKα/β heterodimer samples were then concentrated and incubated in presence of 1 mM ATP plus additives (see above) for 1 hour on ice. Finally, samples were purified by gel filtration chromatography using a Superdex 200 10/30 column (GE Healthcare) pre-equilibrated in gel filtration buffer 1 (20 mM Tris-HCl PH 8.0, 150 mM NaCl, 5% Glycerol, 2 mM DTT).
Experiments were performed in PD buffer (20 mM Tris pH 8.0, 150 mM NaCl, 2 mM DTT). […] Quantification of band intensity was done using the Image J software. […]

SMILES	interaction with IKKβ by pulldown (6×His-IKKβ(1-669) EE)	binding of IKKα/β heterodimer by pulldown (IKKα/β heterodimer)
CC(C)C[C@H](NC(=O)[C@@H](NC(=O)[C@H](CC(C)C)NC(=O)[C@H](CCCNC(=N)N)NC(=O)[C@H](CCC(N)=O)NC(=O)CNC(=O)CNC(=O)[C@H](Cc1ccccc1)NC(=O)[C@@H](NC(=O)[C@H](CC(C)C)NC(=O)[C@H](CC(=O)O)NC(=O)[C@H](CC(=O)O)NC(=O)[C@H](Cc1ccc(O)cc1)NC(=O)[C@@H]1CCCN1C(=O)[C@H](CC(C)C)NC(=O)[C@H](CCC(=O)O)NC(=O)[C@H](CC(=O)O)NC(=O)[C@H](CCC(=O)O)NC(=O)[C@@H](NC(=O)[C@H](Cc1ccccc1)NC(=O)[C@@H](N)CCC(=O)O)[C@@H](C)O)C(C)C)[C@@H](C)O)C(=O)O [IkBα pep C308L] (H-EFTEDELPYDDLVFGGQRLTL-OH; N-terminus and C-terminus assumed)	clearly enhance binding to IKKβ	
CC(C)C[C@H](NC(=O)[C@@H](NC(=O)[C@H](CC(C)C)NC(=O)[C@H](CCCNC(=N)N)NC(=O)[C@H](CCC(N)=O)NC(=O)CNC(=O)CNC(=O)[C@H](Cc1ccccc1)NC(=O)[C@@H](NC(=O)[C@H](CS)NC(=O)[C@H](CC(=O)O)NC(=O)[C@H](CC(=O)O)NC(=O)[C@H](Cc1ccc(O)cc1)NC(=O)[C@@H]1CCCN1C(=O)[C@H](CC(C)C)NC(=O)[C@H](CCC(=O)O)NC(=O)[C@H](CC(=O)O)NC(=O)[C@H](CCC(=O)O)NC(=O)[C@@H](NC(=O)[C@H](Cc1ccccc1)NC(=O)[C@@H](N)CCC(=O)O)[C@@H](C)O)C(C)C)[C@@H](C)O)C(=O)O [IκBα pep] (H-EFTEDELPYDDCVFGGQRLTL-OH; N-terminus and C-terminus assumed)		efficiently binds
